According to patent US20130296344A1, “CHROMENE DERIVATIVES AND THEIR ANALOGA AS WNT PATHWAY ANTAGONISTS” (Ruprecht-Karls-Universitat Heidelberg, priority 2010, published 2013):
Read-outs that look alike come from different tables or passages of the source.

Columns and labels:
[1] = test system: Wnt pathway (Wnt1/Frzd8); experiment: Wnt signaling pathway reporter gene assay (6xTCF-luciferase, Wnt1/Frizzled 8/LRP6 stimulated Hek293T cells); type: cell-based, mouse (Wnt1, human (LRP6)
Text: To screen for small-molecule modulators of the Wnt signaling pathway, a reporter gene based assay describing the modulation of the TCF4 transcription factor was used. […]

[2] = Cytotoxicity in Hek293T (CellTiterGlo); type: cell-based; conditions: human, Hek293T cells, 24 h after compound addition, 5 nM-100 microM, read-out: Hek293T IC50 (cytotoxic activity)
Procedure: (§1) For examination of cytotoxicity in these cancer cell lines the commercial available CellTiterGlo® Reagent (Promega, USA) was used according to the manufactor. Compounds were applied to Hek293T (denoted (a)) or HepG2 (denoted (b)), cultured in Dulbecco's Modified Eagles Medium, supplemented with 10% fetal calf serum and 1% penicillin/streptomycin. Cells were grown in T75 flasks at 37° C., 5% CO2 and trypsinized when 60-80% confluent by adding 2 ml of 0.25% Trypsin-EDTA solution. Cells were then re-suspended into culture medium yielding approx. 4000 cells (a) or 4500 cells (b), suspended in 30 microl medium. 48 h after cell seeding, compounds were added to yield the desired final concentrations. 24 h after compound addition cytotoxicity was evaluated. For this purpose the media was removed and CellTiterGlo® was added according to the manufactors manual. In this assay the luciferase emission readout is directly correlated with the cellular amount of ATP, low luciferase emission thus is reflecting cytotoxicity of a compound.

[3] = Cytotoxicity in HepG2 (CellTiterGlo); type: cell-based; conditions: human, HepG2 cells, 24 h after compound addition, 5 nM-100 microM, read-out: HepG2 IC50 (cytotoxic activity)
Procedure: as §1

[4] = test system: human fibroblasts (HS-68); experiment: Cell line specific cytotoxicity, normal cells HS68 (nuclei count); type: cell-based; conditions: at least 72 hr incubation, Hoechst nuclei count, read-out: HS68 IC50 (influence on normal cells)
Procedure: (§2) For examination of cell line-specific cytotoxicity, compounds were applied to human colorectal cancer cells (HCT116, denoted (1); SW480, denoted (2); Dld-1, denoted (3)) and human fibroblasts (HS-68, denoted (4)), cultured in Mc Coy's ((1)) and Dulbecco's Modified Eagles Medium ((2)-(4)), supplemented with 10% ((1)-(3)) and 20% ((4)) fetal calf serum and 1% penicillin/streptomycin. Cells were grown in T75 flasks at 37° C., 5% CO2 and trypsinized when 60-80% confluent by adding 2 ml of 0.25% Trypsin-EDTA (ethylenediaminetetraacetic acid) solution. Cells were then re-suspended into culture medium yielding approx. 750 cells, suspended in 45 microl medium, were plated into each well of a black 384-well plate for fluorescence imaging experiments. 24-36 hr later 5 microl compound solution (100 microM compound dissolved in ultra pure water containing 1% DMSO (dimethylsulfoxide)), were added to achieve a final concentration of 10 microM and were incubated for at least 72 hr. Compound incubation was terminated by (a) fixation and (b) permeabilisation of cells, followed by (c) fluorescence labeling of cell nuclei for cytometric quantification or by immunocytochemistry for microscopic evaluation of cell morphology. […] Solutions were incubated for 15 (a,b) and 30 min (c) in the dark at room temperature. Cells were washed twice between each step with 30 microl PBS. The assay system was miniaturized and adapted to automated workflow using liquid-handling robotics.
(§3) Cell line-specific cytotoxicity was quantified by counting the number of Hoechst labeled nuclei per well of a 384-well plate using a plate cytometer. Data obtained with the cytometer was analysed using standard data analysis software.
Identified hits were further evaluated by visual inspection of fluorescence micrographs obtained from imaging using a conventional fluorescence microscope.

[5] = test system: Dld1 colon carcinoma cells; experiment: Antiproliferative activity against Dld1 colon carcinoma cells (nuclei count); type: cell-based, human
Procedure: as §2, §3
(§4) The examination of the antiproliferative activity against human colon carcinoma cells Dld1, HCT116 and SW480 was carried out in analogy to the procedure carried out for HS68. The respective compound applied in increasing concentrations yielding final concentrations per well of 5 nM-90 microM.

[6] = test system: HCT116 colon carcinoma cells; experiment: Antiproliferative activity against HCT116 colon carcinoma cells (nuclei count); type: cell-based, human
Procedure: as §2, §3, §4

[7] = test system: SW480 colon carcinoma cells; experiment: Antiproliferative activity against SW480 colon carcinoma cells (nuclei count); type: cell-based; conditions: Homo sapiens, 5 nM-90 microM
Procedure: as §2, §3, §4

[8] = Homo sapiens, HEK-293T, Hek293T, 6xTCF-luciferase reporter, 24 h incubation, 5 nM-100 microM, read-out: Wnt1/Frzd8 IC50 (Wnt pathway inhibitory activity)
[9] = Homo sapiens, DLD-1, colon carcinoma cells, 5 nM-90 microM, nuclei count, read-out: Dld1 IC50
[10] = Homo sapiens, HCT-116, colon carcinoma cells, 5 nM-90 microM, nuclei count, read-out: HCT116 IC50
[11] = Homo sapiens, HEK-293T, 24 h, Hek293T, 6xTCF-luciferase reporter, 24 h incubation, 5 nM-100 microM, read-out: Wnt1/Frzd8 IC50 (Wnt pathway inhibitory activity)
[12] = Table 7, racemate vs enantiomers, procedure of example 54, read-out: IC50 against Wnt-Pathway
[13] = Table 7, racemate vs enantiomers, procedure of example 56, read-out: IC50 against colon cancer cell lines DLDl
[14] = Table 7, racemate vs enantiomers, procedure of example 56, read-out: IC50 against colon cancer cell lines HCT 116

IC50 [1, 11]	SMILES	IC50 [1, 8]	IC50 at 24 h [2]	IC50 at 24 h [3]	IC50 [4]	IC50 [5, 9]	IC50 [6, 10]	IC50 [7]	IC50 ([1]; Homo sapiens, HEK-293T, Table 7, racemate vs enantiomers, procedure of example 54, read-out: IC50 against Wnt-Pathway)	IC50 ([5]; Homo sapiens, DLD-1, Table 7, racemate vs enantiomers, procedure of example 56, read-out: IC50 against colon cancer cell lines DLDl)	IC50 ([6]; Homo sapiens, HCT-116, Table 7, racemate vs enantiomers, procedure of example 56, read-out: IC50 against colon cancer cell lines HCT 116)	IC50 [1, 12]	IC50 [5, 13]	IC50 [6, 14]
	COc1cc(C2C(C#N)=C(N)Oc3c2ccc2ccccc32)cc(Br)c1OC (stereo not drawn) [(1), 2-Amino-4-(3-bromo-4,5-dimethoxy-phenyl)-4H-benzo[h]chromene-3-carbonitrile]	0.046 µM	> 90 µM	> 90 µM	0.087 µM	0.038 µM	0.049 µM	0.056 µM						
1.97 µM	COc1cc(C2C(C#N)=C(N(C)C)Oc3cc4ccccc4cc32)cc(Br)c1OC (stereo not drawn) [(31), 2-Dimethylamino-4-(3-bromo-4,5-dimethoxy-phenyl)-4H-benzo[g]chromene-3-carbonitrile]		> 90 µM	> 90 µM	> 90 µM	4.56 µM	10 µM	12 µM						
	COc1cc(C2C(C#N)=C(N)Oc3c2ccc2ccc(N)nc32)cc(Br)c1OC (racemic) [(20), 3,6-Diamino-1-(3-bromo-4,5-dimethoxy-phenyl)-1H-4-oxa-5-aza-phenanthrene-2-carbonitrile]	0.006 µM	> 90 µM	37 µM		0.014 µM	0.015 µM		0.005 µM	0.01 µM	0.005 µM			
	COc1cc(C2C(C#N)=C(N)Oc3cc4ccccc4cc32)cc(Br)c1OC (stereo not drawn) [(30), 2-Amino-4-(3-bromo-4,5-dimethoxy-phenyl)-4H-benzo[g]chromene-3-carbonitrile]	0.697 µM	> 90 µM	> 90 µM	5.15 µM	8.97 µM	2.9 µM	7.6 µM						
	COc1cc(C2C(C#N)=C(N)Oc3c2ccc2ccc(N)nc32)cc(Br)c1OC (single isomer, unassigned) [(20)-1, 3,6-Diamino-1-(3-bromo-4,5-dimethoxy-phenyl)-1H-4-oxa-5-aza-phenanthrene-2-carbonitrile]											< 0.005 µM	< 0.005 µM	< 0.005 µM
3.42 µM	CCOC(=O)C1=C(N)Oc2cc3c(cc2C1c1cc(F)c(F)c(F)c1)OCO3 (stereo not drawn) [(40), 6-Amino-8-(3,4,5-trifluoro-phenyl)-8H-[1,3]dioxolo[4,5-g]chromene-7-carboxylic acid ethyl ester]		> 90 µM	> 90 µM	> 90 µM	15.7 µM	> 90 µM	6.38 µM						
	C=CCOc1c(Br)cc(C2C(C#N)=C(N)Oc3cc4c(cc32)OCO4)cc1OC (stereo not drawn) [(41), 8-(4-Allyloxy-3-bromo-5-methoxy-phenyl)-6-amino-8H-[1,3]dioxolo[4,5-g]chromene-7-carbonitrile]	0.045 µM	> 90 µM	> 90 µM	0.641 µM	0.47 µM	0.551 µM	0.618 µM						
	COc1cc(C2C(C#N)=C(N)Oc3c2c(O)nc2ccccc32)cc(Br)c1OC (stereo not drawn) [(17), 2-Amino-4-(3-bromo-4,5-dimethoxy-phenyl)-5-hydroxy-4H-pyrano[3,2-c]quinoline-3-carbonitrile]	0.02 µM	> 90 µM	> 90 µM		0.643 µM	0.305 µM	0.577 µM						
	COc1cc(C2C(C#N)=C(N)Oc3c2ccc2ncccc32)cc(Br)c1OC (stereo not drawn) [(18), 6-Amino-8-(3-bromo-4,5-dimethoxy-phenyl)-8H-5-oxa-1-aza-phenanthrene-7-carbonitrile]	0.033 µM	> 90 µM	> 90 µM	2.77 µM	0.185 µM	0.331 µM	19.7 µM						
	COc1cc(C2C(C#N)=C(N)Oc3c2ccc2ccc(O)nc32)cc(Br)c1OC (stereo not drawn) [(19), 3-Amino-1-(3-bromo-4,5-dimethoxy-phenyl)-6-hydroxy-1H-4-oxa-5-aza-phenanthrene-2-carbonitrile]	0.003 µM	> 90 µM	> 90 µM		0.021 µM	0.017 µM							
0.055 µM	C=CCOc1c(Br)cc(C2C(C(=O)OCC)=C(N)Oc3cc4c(cc32)OCO4)cc1OC (stereo not drawn) [(42), 8-(4-Allyloxy-3-bromo-5-methoxy-phenyl)-6-amino-8H-[1,3]dioxolo[4,5-g]chromene-7-carboxylic acid ethyl ester]		> 90 µM	> 90 µM	0.469 µM	0.293 µM	0.25 µM	0.343 µM						
	N#CC1=C(N)Oc2cc3ccccc3cc2C1c1cc(F)c(N2CCCCC2)c(F)c1 (stereo not drawn) [(29), 2-amino-4-(3,5-difluoro-4-piperidin-1-yl-phenyl)-4H-benzo[g]chromene-3-carbonitrile]	6.48 µM	> 90 µM	42.5 µM	> 90 µM	> 90 µM	> 90 µM	38.5 µM						
	N#CC1=C(N)Oc2cc3c(cc2C1c1cc(F)c(F)c(F)c1)OCO3 (stereo not drawn) [(39), 6-Amino-8-(3,4,5-trifluoro-phenyl)-8H-[1,3]dioxolo[4,5-g]chromene-7-carbonitrile]	1.36 µM	> 90 µM	> 90 µM		1.08 µM	0.666 µM	2.69 µM						
	N#CC1=C(N)Oc2cc3ccccc3cc2C1c1cc(F)c(F)c(F)c1 (stereo not drawn) [(28), 2-amino-4-(3,4,5-trifluoro-phenyl)-4H-benzo[g]chromene-3-carbonitrile]	2.4 µM	> 90 µM	31.7 µM	> 90 µM	22 µM	30.3 µM	53.6 µM						
0.855 µM	CCOC(=O)C1=C(N)Oc2c(ccc3ccccc23)C1c1cc(Br)c(OC)c(OC)c1 (stereo not drawn) [(6), 2-Amino-4-(3-bromo-4,5-dimethoxy-phenyl)-4H-benzo[h]chromene-3-carboxylic acid ethyl ester]		> 90 µM	> 90 µM	> 90 µM	3.82 µM	8.6 µM	5.96 µM						
	COc1cc(C2C(C#N)=C(N)Oc3c2ccc2ccc(C)nc32)cc(Br)c1OC (stereo not drawn) [(16), 3-Amino-1-(3-bromo-4,5-dimethoxy-phenyl)-6-methyl-1H-4-oxa-5-aza-phenanthrene-2-carbonitrile]	1.13 µM	> 90 µM	> 90 µM	4.95 µM	2.9 µM	3.34 µM	3.16 µM						
	COc1cc(C2C(C#N)=C(N)Oc3c2ccc2ccc(N)nc32)cc(Br)c1OC (single isomer, unassigned) [(20)-2, 3,6-Diamino-1-(3-bromo-4,5-dimethoxy-phenyl)-1H-4-oxa-5-aza-phenanthrene-2-carbonitrile]											0.33 µM	0.356 µM	0.354 µM
